Entries after “also recorded” stand apart in the source; their conditions may differ.
Assays:
[1] = tested on: Human ESCs (CyT203); experiment: Differentiation of hESCs in growth factor conditions, marker gene expression by QPCR; type: cell-based; settings: for expression of brachyury: RPMI, 0% FBS day 1, 0.2% day 2, 2% days 3-5, activin A 100 ng/ml at 36 and 48 hours; for differentiation of hESCs to initial cell fate, as indicated by marker expression: cultures lacking insulin, follistatin 100 ng/ml, noggin 200 ng/ml, BMP4 100 ng/ml, 5 days
Method: Human ESCs (CyT203) were grown in growth media on a mouse fibroblast feeder layer. On the day differentiation began, cultures were washed once with phosphate buffered saline (PBS) and then placed into differentiation media. Differentiation media consisted of RPMI with penicillin/streptomycin and Glutamax containing 0% FBS on the first day, 0.2% v/v FBS on the second day and 2% v/v FBS on days 3-5. Growth factors were used at the following concentrations: activin A at 100 ng/ml, follistatin at 100 ng/ml, noggin at 200 ng/ml, BMP4 at 100 ng/ml, and SU5402 at 5 μM. Individual cultures received the same growth factor cocktail with or without the addition of 10 μg/ml human recombinant insulin for all 5 days of differentiation as indicated. Samples were taken at daily intervals for analysis of gene expression using QPCR to monitor the differentiation of the populations in response to the different growth factor treatments. At the conclusion of the treatment phase the cells were fixed in 4% paraformaldehyde for 15 min at room temperature and reacted with antibodies to SOX17 or PAX6. Human embryonic stem cells (CyT203) were grown in growth media on a mouse fibroblast feeder layer. On the day differentiation began, cultures were washed once with phosphate buffered saline (PBS) and then placed into differentiation media. Differentiation media consisted of RPMI with penicillin/streptomycin and Glutamax containing 0% FBS on the first day, 0.2% v/v FBS on the second day and 2% v/v FBS on days 3-5. Cultures were treated with SU5402 at 5 μM with or without the addition of human recombinant insulin at 10 μg/ml. Individual cultures received the same growth factor cocktail for all 5 days of differentiation as indicated. Samples were taken at daily intervals for analysis of gene expression using QPCR to monitor the differentiation of the populations in response to the different growth factor treatments. At the conclusion of the treatment phase the cells were fixed in 4% paraformaldehyde for 15 min at room temperature and reacted with antibodies to SOX17, OCT4 or PAX6.

[2] = tested on: Human ESCs (CyT203); experiment: Immunofluorescence of treated hESCs with antibodies to SOX17, OCT4 or PAX6; type: cell-based
Method: Human ESCs (CyT203) were grown in growth media on a mouse fibroblast feeder layer. On the day differentiation began, cultures were washed once with phosphate buffered saline (PBS) and then placed into differentiation media. Differentiation media consisted of RPMI with penicillin/streptomycin and Glutamax containing 0% FBS on the first day, 0.2% v/v FBS on the second day and 2% v/v FBS on days 3-5. Growth factors were used at the following concentrations: activin A at 100 ng/ml, follistatin at 100 ng/ml, noggin at 200 ng/ml, BMP4 at 100 ng/ml, and SU5402 at 5 μM. Individual cultures received the same growth factor cocktail with or without the addition of 10 μg/ml human recombinant insulin for all 5 days of differentiation as indicated. Samples were taken at daily intervals for analysis of gene expression using QPCR to monitor the differentiation of the populations in response to the different growth factor treatments. At the conclusion of the treatment phase the cells were fixed in 4% paraformaldehyde for 15 min at room temperature and reacted with antibodies to SOX17 or PAX6.
Human embryonic stem cells (CyT203) were grown in growth media on a mouse fibroblast feeder layer. On the day differentiation began, cultures were washed once with phosphate buffered saline (PBS) and then placed into differentiation media. Differentiation media consisted of RPMI with penicillin/streptomycin and Glutamax containing 0% FBS on the first day, 0.2% v/v FBS on the second day and 2% v/v FBS on days 3-5. Cultures were treated with SU5402 at 5 μM with or without the addition of human recombinant insulin at 10 μg/ml. Individual cultures received the same growth factor cocktail for all 5 days of differentiation as indicated. Samples were taken at daily intervals for analysis of gene expression using QPCR to monitor the differentiation of the populations in response to the different growth factor treatments. At the conclusion of the treatment phase the cells were fixed in 4% paraformaldehyde for 15 min at room temperature and reacted with antibodies to SOX17, OCT4 or PAX6.

[3] = QPCR, insulin 10 μg/ml added to growth factor treatment
[4] = QPCR, activin A 100 ng/ml, SU5402 5 μM
[5] = QPCR, no insulin, continued presence of activin A 100 ng/ml

Molecule: insulin: human recombinant insulin, 10 μg/ml, signals through the PI-3-kinase pathway
- production of cells of each of the primary lineages ([1]; 10 μg/ml human recombinant insulin added to the growth factor cocktail, all 5 days): significantly reduced
- expression of CDX2 in the presence of insulin [1, 3]: decreased expression
- expression of PAX6 in the presence of insulin [1, 3]: decreased expression
- expression of SOX1 in the presence of insulin [1, 3]: decreased expression
- expression of SOX7 in the presence of insulin [1, 3]: decreased expression
- expression of WNT3A in the presence of insulin [1, 3]: decreased expression
- expression of brachyury in the presence of insulin [1, 3]: decreased expression
- generalized differentiation under SU5402 ([1]; SU5402 5 μM plus insulin 10 μg/ml, brachyury, SOX1, SOX7, CDX2): inhibited strongly
- efficiency with which the hESCs differentiate to each of the 4 primary lineages ([1]; high levels of insulin (10 μg/ml) in the media): decrease
- OCT4-positive cell numbers ([2]; high levels of insulin present): maintenance
- number of SOX17-positive cells in response to activin A treatment ([2]; high levels of insulin present): decrease
- number of PAX6-positive cells in response to noggin/follistatin treatment ([2]; insulin in the media): reduced

Molecule: Cc1c[nH]c(/C=C2\C(=O)Nc3ccccc32)c1CCC(=O)O [SU5402, reference compound]
- expression of brachyury ([1]; QPCR, no insulin, SU5402 5 μM): elevated expression
- differentiation of hESCs to initial cell fate, as indicated by marker expression [1, 4]: make all available fate choices; also recorded: made all available fate choices
- expression of CDX2 ([1]; QPCR, no insulin, SU5402 5 μM): elevated expression
- expression of SOX1 ([1]; QPCR, no insulin, SU5402 5 μM): elevated expression
- expression of SOX7 ([1]; QPCR, no insulin, SU5402 5 μM): elevated expression

B1: activin A: growth factor used at 100 ng/ml as differentiation factor (protein, UniProt P08476 311-426, looked up)
Inhibin beta A chain: GLECDGKVNICCKKQFFVSFKDIGWNDWIIAPSGYHANYCEGECPSHIAGTSGSSLSFHSTVINHYRMRGHSPFANLKSCCVPTKLRPMSMLYYDDGQNIIKKDIQNMIVEECGCS
modifications: Inhibin beta A chain
notes: growth factor used at 100 ng/ml as differentiation factor
- expression of brachyury ([1]; QPCR, no insulin, SU5402 5 μM): elevated expression
- differentiation of hESCs to initial cell fate, as indicated by marker expression [1, 4]: induced initial fate commitment to mesendoderm
- PAX6 mRNA ([1]; QPCR, no insulin, activin A 100 ng/ml): induction
- expression of WNT3A ([1]; QPCR, no insulin, activin A 100 ng/ml, at 36 and 48 hours): elevated expression
- expression of GSC [1, 5]: elevated expression
- expression of SOX17 [1, 5]: elevated expression
- further differentiation of the mesendoderm ([1]; continued presence of activin A 100 ng/ml, indicated by SOX17 and GSC): further differentiated to definitive endoderm

From patent US20100323442A1, “MODULATION OF THE PHOSPHATIDYLINOSITOL-3-KINASE PATHWAY IN THE DIFFERENTIATION OF HUMAN EMBRYONIC STEM CELLS” (priority 2006, published 2010)
